Reference: a melting point compilation (Tetko et al.)

melting point [°C] | SMILES
175 to 177 | O=C(OCc1ccccc1)N1CCc2n[nH]c(=O)cc2C1
176 to 178 | O=C(O)C1(O)Cc2ccccc2C1
171 to 173 | O=C(O)C1CCCN(C(=O)CCOc2ccccc2)C1 (configuration not stated)
89 to 91 | O=C(O)Cc1csc(-c2ccccc2)n1
188 to 190 | Cc1c(C(=O)O)nnn1-c1cccc2cccnc12
162 to 164 | O=C(O)Cc1ccc([N+](=O)[O-])cc1F
204 to 206 | Cc1ccc(S(C)(=O)=O)cc1C(=O)O
156 to 158 | O=Cc1ccc(OCC(=O)O)c([N+](=O)[O-])c1
49 to 51 | O=C(O)CCn1ccc2ccccc21
174 to 176 | CCc1ccc(C(=O)O)cc1S(C)(=O)=O
124 to 126 | O=C(O)[C@@H]1C[C@H]1c1cccnc1 (relative stereo)
189 to 191 | Nc1cc(F)c(Br)cc1C(=O)O
55 to 57 | CC1CC1c1ccc(C(=O)O)o1 (configuration not stated)
155 to 157 | O=C(O)c1ccn(-c2cccc(C(F)(F)F)c2)n1
170 to 172 | O=C(O)c1cccc(S(=O)(=O)CC(F)F)c1
133 to 135 | O=C(O)C1CCN(S(=O)(=O)c2cccs2)CC1
158 to 160 | Cc1cc(C)cc(-n2ncc(C(=O)O)n2)c1
89 to 91 | Cc1cc(N2CCOCC2)ccc1N
121 to 125 | CCN(CC)S(=O)(=O)c1ccc(Cl)c(C(=O)O)c1
148 to 150 | O=C(O)C(c1ccccc1)N1CCCCC1=O (configuration not stated)
165 to 167 | O=C(O)c1ccc(OC2CCCC2)nc1
231 to 233 | Cn1cnnc1SCC(=O)Nc1cccc(C(=O)O)c1
136 to 138 | OC1CN(c2ccc(C(F)(F)F)cn2)C1

melting point [°C] | SMILES
146 to 148 | Cc1cccc(-c2nn(-c3ccccc3)cc2C(=O)O)c1
88 to 92 | COCc1ccc(C(=O)O)cc1
147 to 149 | COc1ccc(C(=O)c2ccccc2C(=O)O)cc1F
183 to 185 | O=C(Nc1ccc(F)cc1)N1CCC(=NO)CC1
212 to 214 | NS(=O)(=O)c1ccc(C(=O)O)o1
69 to 71 | CCc1nc2cc(N)ccc2o1
150 to 152 | O=C(Nc1ccc(F)cc1)NC1CCNC1 (configuration not stated)
101 to 103 | Cc1ccc(F)cc1NC(=O)C(C)Cl (configuration not stated)
185 to 187 | NC(=O)Nc1cc(Cl)ccc1C(=O)O
96 to 98 | COC(=O)c1ccc(O)c(C(C)=O)c1
57 to 59 | NC1CCS(=O)(=O)c2ccc(Cl)cc21 (configuration not stated)
209 to 211 | O=c1[nH]c2ccc(I)cc2o1
128 to 130 | O=C(O)CCNS(=O)(=O)c1ccccc1Cl
116 to 118 | CS(=O)(=O)C(Cc1ccccc1)C(=O)O (configuration not stated)
125 to 127 | COc1ccc(S(=O)(=O)NCCC(=O)O)cc1
150 to 152 | Cc1cc(C)c(OCC(=O)O)c(C)c1
97 to 99 | COc1ccc(CC2CC(=O)N2)cc1 (configuration not stated)
132 to 134 | CCCn1nc(C(=O)O)ccc1=O
183 to 185 | CS(=O)(=O)c1ccc(Cl)c(C(=O)O)c1
75 to 77 | CC1CNc2cc(Cl)ccc2O1 (configuration not stated)
173 to 175 | O=C(O)c1cc(Cl)cc(Cl)c1I
169 to 171 | Cc1[nH]c2ccc(C(N)=O)cc2c1C

Second part, the compound before the results:

SMILES | melting point [°C]
O=C(O)C12CC3CC(C1)CC(C(F)(F)F)(C3)C2 | 138 to 140
Cc1ccnc(Br)c1[N+](=O)[O-] | 54 to 56
NS(=O)(=O)c1cccnc1 | 109 to 111
CCOC(=O)c1c(N)sc(C(=O)NC)c1C | 151 to 153
N#Cc1ccc(-n2cc(C#N)c(N)n2)c(F)c1 | 258 to 260
c1ccc(COc2ccc3ncccc3c2)cc1 | 73 to 75
COC(=O)c1ccn2c(I)cnc2c1 | 209 to 211
O=C1NCCc2ccc([N+](=O)[O-])cc21 | 228 to 230
O=S1(=O)CCC(Cc2nnc(S)o2)C1 (configuration not stated) | 160 to 162
COc1cc2nc(N3CCN(C(=O)C4COc5ccccc5O4)CC3)nc(N)c2cc1OC (configuration not stated) | 279 to 281
NNc1ccc(Cl)nc1 | 131 to 133
CC(Cl)C(=O)N1CC(=O)Nc2cc(C(F)(F)F)ccc21 (configuration not stated) | 152 to 154
NCc1nnn[nH]1 | 269 to 271
CCn1c(SCC(=O)N2c3ccccc3Sc3ccccc32)nnc1-c1ccco1 | 152 to 154
COc1cc(OC)c(S(=O)(=O)Cl)cc1Br | 193 to 195
NC(=O)c1cc(-c2ccccc2)sc1NC(=O)CCl | 208 to 210
COC(=O)c1cc(N)cc(Cl)c1 | 95 to 97
NC(=NO)c1ccc(-n2cnc3ccccc32)nc1 | 214 to 216
Brc1ccc(NCc2ccsc2)cc1 | 44 to 46

SMILES | melting point [°C]
N#Cc1cnc2ccccn12 | 154 to 156
O=S(=O)(Cl)c1cc2c(cc1Br)OCCCO2 | 105 to 107
Sc1nncn1CCc1ccccn1 | 204 to 206
Nc1cc(-c2cccs2)no1 | 91 to 93
C=CCn1c(C)nnc1S | 264 to 266
CCOC(=O)c1[nH]nc2ccc(Br)cc12 | 231 to 233
NCC(O)CN1CCc2ccccc2C1 (configuration not stated) | 59 to 61
Cc1cccnc1NC(=O)C1CCNCC1 | 136 to 138
ClCc1nc(-c2ccsc2)no1 | 52 to 56
COCCS(=O)(=O)Cc1cccc(S(=O)(=O)Cl)c1 | 109 to 111
Cc1nc(SCC(=O)O)c(C#N)c(C)c1C | 135 to 138
CCc1ccccc1N(C(C)=O)c1nc(CN=C=S)cs1 | 96 to 98
O=c1[nH]nc2n1CCNC2 | 179 to 181
O=C1OC(O)C(Cl)=C1Cl (configuration not stated) | 179 to 182
Cc1ccccc1-n1c(S)nc2ccccc2c1=O | 96 to 97
N#Cc1ccc(F)c(Cn2ccnc2)c1 | 91 to 93
O=c1[nH]cnc2cc(F)c(F)cc12 | 264 to 266
CCOC(=O)c1c(N)sc(C(=O)OCCOC)c1C | 118 to 120
O=C(CBr)c1ccc(N2CCCC2=O)cc1 | 130 to 132

SMILES | melting point [°C]
Cc1nc(CNc2ccc(F)cc2)cs1 | 76 to 78
CC1CC(C)(C)CC2(C1)NC(=O)NC2=O (configuration not stated) | 273 to 275
CCC1(C)NC(=O)NC1=O (configuration not stated) | 144 to 150
O=C(O)c1ccccc1-c1nc2ccccc2s1 | 190 to 192
NCCC(O)(c1ccccc1)C(F)(F)F (configuration not stated) | 110 to 112
N#CCCn1cc(C(N)=O)cn1 | 179 to 181
O=S(=O)(Cl)c1cc2ccc(Cl)nc2cc1F | 128 to 130
C=CC(=O)Nc1cccc(C#N)c1 | 117 to 119
O=C(Nc1ccc(Br)cc1)c1cccnc1Cl | 150 to 152
Cc1cc(-n2c(C)cc(C=O)c2C)no1 | 75 to 77
Cc1c(C)n(Cc2ccccc2)c2ncnc(N)c12 | 175 to 177
Cc1csc(Nc2ccccc2)n1 | 74 to 76
O=C(CCl)c1cc(Cl)sc1Cl | 43 to 45
Cc1nc(C)c(S(N)(=O)=O)s1 | 142 to 144
COc1cc(CN)ccc1OCCO | 113 to 115
CCOc1cc(C=O)ccc1OC(F)F | 30 to 32
NC(=O)c1cc(Cl)ccn1 | 157 to 159
O=C(Nc1ccccn1)c1ccc(Br)cc1 | 134 to 136
CC(C)N(O)C(=O)C(=O)O | 99 to 101
